# Data as given in patent publication US9850283B2, “Macrocyclic inhibitors of the PD-1/PD-L1 and CD80(B7-1)/PD-L1 protein/protein interactions” (BRISTOL-MYERS SQUIBB COMPANY, priority 2013, dated 2017).
# Where two headings read alike, the source gives them in different places. Starred links: 1 amine or outer side, 2 acyl side, 3 side chain; linkers in the order of their positions; H or OH if unused. Positions of bridges follow the written chain, without caps; N, C: chain ends. Non-standard residues stand in square brackets, D forms with d. Residues, ends and D or L forms follow the SMILES beside them. *: point of attachment. Phe(3,4,5-F3) = N[C@@H](Cc1cc(F)c(F)c(F)c1)C(=O)O; NHTrityl = c1ccc(C(N*)(c2ccccc2)c2ccccc2)cc1; NMe2Nal = CN[C@@H](Cc1ccc2ccccc2c1)C(=O)O; Dopa = N[C@@H](Cc1ccc(O)c(O)c1)C(=O)O; d(cisHyp) = O=C(O)[C@H]1C[C@@H](O)CN1; NMeF = CN[C@@H](Cc1ccccc1)C(=O)O; X4 = O=C([C@H]1COCCN1[*:1])[*:2]; 3Pal = N[C@@H](Cc1cccnc1)C(=O)O; dHyp = O=C(O)[C@H]1C[C@H](O)CN1; dNMeE = CN[C@H](CCC(=O)O)C(=O)O; NMeNle = CCCC[C@H](NC)C(=O)O; Orn = NCCC[C@H](N)C(=O)O; dThz = O=C(O)[C@H]1CSCN1; OtBu = CC(C)(C)O*; Sar = CNCC(=O)O
# What was measured:
# Human PD-L1/PD-1 = target: T1, Human PD-L1/PD-1 (Homo sapiens, UniProt Q9NZQ7); experiment: HTRF PD-1-Ig/PD-L1-His binding assay (human PD-L1)
# T1 construct: made in house; host or cells: HEK293T
# T1 sequence (Q9NZQ7 with tags, fused parts or gaps): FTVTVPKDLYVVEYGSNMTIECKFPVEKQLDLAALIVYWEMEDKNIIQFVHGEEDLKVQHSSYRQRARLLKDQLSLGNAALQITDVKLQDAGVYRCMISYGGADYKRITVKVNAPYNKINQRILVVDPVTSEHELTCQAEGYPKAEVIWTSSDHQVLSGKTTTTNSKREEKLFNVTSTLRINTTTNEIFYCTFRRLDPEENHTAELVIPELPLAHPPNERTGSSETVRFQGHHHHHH
# Method in brief: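 Soluble Fc-fused PD-1 and His-tagged PD-L1 (truncated before the transmembrane region) were combined in dPBS with 0.1% (w/v) BSA and 0.05% (v/v) Tween-20. Binding was read by HTRF using europium cryptate anti-Ig antibody (1 nM final) and APC anti-His antibody (20 nM final).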
# [1] = target: T2, LK35.2-hPD-L1 cells / PE-labeled PD-1-Ig (Homo sapiens, UniProt Q9NZQ7); experiment: LK35.2-hPD-L1 cell binding high-content screening assay; assay type: cell-based; conditions: cell binding assay, cell line not given
# T2 construct: expressed in transfected cells; host or cells: LK35.2 mouse B cell line
# T2 sequence (Q9NZQ7 19-290): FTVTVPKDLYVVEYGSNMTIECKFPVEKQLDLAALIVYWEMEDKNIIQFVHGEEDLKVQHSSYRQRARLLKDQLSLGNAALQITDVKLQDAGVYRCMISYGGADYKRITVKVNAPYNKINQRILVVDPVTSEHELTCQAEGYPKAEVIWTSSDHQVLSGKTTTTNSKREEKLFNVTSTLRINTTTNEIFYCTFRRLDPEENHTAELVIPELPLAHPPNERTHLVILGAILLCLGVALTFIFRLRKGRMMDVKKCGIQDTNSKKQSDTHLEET
# Method in brief: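 Compound effect on PD-1/PD-L1 binding is measured by imaging cell-associated phycoerythrin signal. Human PD-1-Ig (PE on Ig tag, 1 nM final) is applied with compound to a murine B cell line overexpressing human PD-L1 for 1 h at 37 °C in serum-containing RPMI.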
# [2] = cluster symbol, read-out: HTRF IC50 cluster
# [3] = cluster symbol, read-out: CBA IC50 cluster
# [4] = value given instead of cluster, read-out: HTRF IC50 value
# [5] = value given instead of cluster, read-out: CBA IC50 value
IC50 (Human PD-L1/PD-1; [2]),"IC50 [1, 3]",Structure (SMILES),other results
,,CCCC[C@H]1C(=O)N2C[C@H](O)C[C@@H]2C(=O)N[C@H](CC(=O)NC(c2ccccc2)(c2ccccc2)c2ccccc2)C(=O)N[C@@H](C(C)C)C(=O)N(C)[C@@H](Cc2ccccc2)C(=O)N[C@@H](Cc2ccc(O)cc2)C(=O)N(C)[C@H](CCC(=O)O)C(=O)N[C@@H](Cc2c[nH]c3ccccc23)C(=O)N[C@@H](Cc2ccc(O)cc2)C(=O)N[C@@H](CCCCN)C(=O)N[C@H](C(=O)NCC(N)=O)CSCC(=O)N[C@@H](Cc2ccccc2)C(=O)N(C)[C@@H](Cc2ccccc2)C(=O)N1C [Example 3595] ({CH2CO}-F[NMeF][NMeNle][d(cisHyp)][dD](NHTrityl)V[NMeF]Y[dNMeE]WYKCG-NH2; thioether N-13),"IC50 (Human PD-L1/PD-1; HTRF IC50 value, value given instead of cluster): 991 nM; IC50 ([1]; CBA IC50 value, value given instead of cluster): 123 nM"
6.76 to 30.3 nM,0.158 to 4.71 nM,"CCCC[C@H]1C(=O)N2C[C@H](O)C[C@@H]2C(=O)N[C@@H](CC(N)=O)C(=O)N[C@@H](C(C)C)C(=O)N(C)[C@@H](Cc2ccccc2)C(=O)N[C@@H](Cc2ccc(O)cc2)C(=O)N(C)[C@H](CCC(=O)O)C(=O)N[C@@H](Cc2c[nH]c3ccccc23)C(=O)N[C@@H](Cc2ccc(O)cc2)C(=O)N[C@@H](CCCCN)C(=O)N[C@H](C(=O)NCC(N)=O)CSCC(=O)N[C@@H](Cc2cc(F)c(F)c(F)c2)C(=O)N(C)[C@@H](Cc2ccccc2)C(=O)N1C [Example 3596] ({CH2CO}-[Phe(3,4,5-F3)][NMeF][NMeNle][d(cisHyp)]NV[NMeF]Y[dNMeE]WYKCG-NH2; thioether N-13)",
0.385 to 6.74 nM,0.158 to 4.71 nM,"CCCC[C@H]1C(=O)N2C[C@H](O)C[C@@H]2C(=O)N[C@@H](CC(=O)O)C(=O)N[C@@H](C(C)C)C(=O)N(C)[C@@H](Cc2ccccc2)C(=O)N[C@@H](CCCN)C(=O)N2CCOC[C@@H]2C(=O)N[C@@H](Cc2c[nH]c3ccccc23)C(=O)N[C@@H](Cc2ccc(O)cc2)C(=O)N[C@@H](CCCN)C(=O)N[C@H](C(=O)NCC(N)=O)CSCC(=O)N[C@@H](Cc2cc(F)c(F)c(F)c2)C(=O)N(C)[C@@H](Cc2ccccc2)C(=O)N1C [Example 3598] ({CH2CO}-[Phe(3,4,5-F3)][NMeF][NMeNle][d(cisHyp)]DV[NMeF][Orn][X4]WY[Orn]CG-NH2; thioether N-13)",
0.385 to 6.74 nM,0.158 to 4.71 nM,"CCCC[C@H]1C(=O)N2C[C@H](O)C[C@@H]2C(=O)N[C@@H](CC(=O)O)C(=O)N[C@@H](C(C)C)C(=O)N(C)[C@@H](Cc2ccccc2)C(=O)N[C@@H](CCC(=O)O)C(=O)N2CCOC[C@@H]2C(=O)N[C@@H](Cc2c[nH]c3ccccc23)C(=O)N[C@@H](Cc2ccc(O)cc2)C(=O)N[C@@H](CCCN)C(=O)N[C@H](C(=O)NCC(N)=O)CSCC(=O)N[C@@H](Cc2cc(F)c(F)c(F)c2)C(=O)N(C)[C@@H](Cc2ccccc2)C(=O)N1C [Example 3599] ({CH2CO}-[Phe(3,4,5-F3)][NMeF][NMeNle][d(cisHyp)]DV[NMeF]E[X4]WY[Orn]CG-NH2; thioether N-13)",
,,CCCC[C@H]1C(=O)N2CSC[C@@H]2C(=O)N[C@@H](CC(=O)O)C(=O)N[C@@H](C(C)C)C(=O)N(C)[C@@H](Cc2ccccc2)C(=O)N[C@@H](Cc2ccc(O)cc2)C(=O)N(C)CC(=O)N[C@@H](Cc2c[nH]c3ccccc23)C(=O)N[C@@H](Cc2ccc(O)cc2)C(=O)N[C@@H](CC(C)C)C(=O)N[C@H](C(=O)NCC(N)=O)CSCC(=O)N[C@@H](Cc2ccccc2)C(=O)N(C)[C@@H](Cc2ccccc2)C(=O)N1C [Example 3600] ({CH2CO}-F[NMeF][NMeNle][dThz]DV[NMeF]Y[Sar]WYLCG-NH2; thioether N-13),"IC50 (Human PD-L1/PD-1; [4]): 6.1 nM; IC50 [1, 5]: 3.9 nM"
,,CCCC[C@H]1C(=O)N(C)CC(=O)N[C@@H](CC(=O)O)C(=O)N[C@@H](C(C)C)C(=O)N(C)[C@@H](Cc2ccccc2)C(=O)N[C@@H](Cc2ccc(O)cc2)C(=O)N2CSC[C@@H]2C(=O)N[C@@H](Cc2c[nH]c3ccccc23)C(=O)N[C@@H](Cc2ccc(O)cc2)C(=O)N[C@@H](CC(C)C)C(=O)N[C@H](C(=O)NCC(N)=O)CSCC(=O)N[C@@H](Cc2ccccc2)C(=O)N(C)[C@@H](Cc2ccccc2)C(=O)N1C [Example 3601] ({CH2CO}-F[NMeF][NMeNle][Sar]DV[NMeF]Y[dThz]WYLCG-NH2; thioether N-13),"IC50 (Human PD-L1/PD-1; [4]): 6.91 nM; IC50 [1, 5]: 1.79 nM"
6.76 to 30.3 nM,> 74.3 nM,CCCC[C@H]1C(=O)N(C)CC(=O)N[C@@H](CC(=O)O)C(=O)N[C@@H](C(C)C)C(=O)N(C)[C@@H](Cc2ccccc2)C(=O)N[C@@H](Cc2ccc(O)cc2)C(=O)N(C)CC(=O)N[C@@H](Cc2c[nH]c3ccccc23)C(=O)N[C@@H](Cc2ccc(O)cc2)C(=O)N[C@@H](CC(C)C)C(=O)N[C@H](C(=O)NCC(N)=O)CSCC(=O)N[C@@H](Cc2ccccc2)C(=O)N[C@@H](Cc2cccnc2)C(=O)N1C [Example 3602] ({CH2CO}-F[3Pal][NMeNle][Sar]DV[NMeF]Y[Sar]WYLCG-NH2; thioether N-13),
6.76 to 30.3 nM,4.78 to 72.9 nM,CCCC[C@H]1C(=O)N(C)CC(=O)N[C@@H](CC(N)=O)C(=O)N[C@@H](C(C)C)C(=O)N(C)[C@@H](Cc2ccccc2)C(=O)N[C@@H](Cc2ccc(O)cc2)C(=O)N(C)CC(=O)N[C@@H](Cc2c[nH]c3ccccc23)C(=O)N[C@@H](Cc2ccc(O)cc2)C(=O)N[C@@H](CCCN)C(=O)N[C@H](C(=O)NCC(N)=O)CSCC(=O)N[C@@H](Cc2ccccc2)C(=O)N(C)[C@@H](Cc2ccc3ccccc3c2)C(=O)N1C [Example 3603] ({CH2CO}-F[NMe2Nal][NMeNle][Sar]NV[NMeF]Y[Sar]WY[Orn]CG-NH2; thioether N-13),
> 30.5 nM,> 74.3 nM,CCCC[C@H]1C(=O)N(C)CC(=O)N[C@@H](CC(=O)OC(C)(C)C)C(=O)N[C@@H](C(C)C)C(=O)N(C)[C@@H](Cc2ccccc2)C(=O)N[C@@H](Cc2ccc(O)cc2)C(=O)N(C)CC(=O)N[C@@H](Cc2c[nH]c3ccccc23)C(=O)N[C@@H](Cc2ccc(O)cc2)C(=O)N[C@@H](CC(C)C)C(=O)N[C@H](C(=O)NCC(N)=O)CSCC(=O)N[C@@H](Cc2ccccc2)C(=O)N[C@@H](Cc2cccnc2)C(=O)N1C [Example 3604] ({CH2CO}-F[3Pal][NMeNle][Sar]D(OtBu)V[NMeF]Y[Sar]WYLCG-NH2; thioether N-13),
0.385 to 6.74 nM,0.158 to 4.71 nM,"CCCC[C@H]1C(=O)N2C[C@@H](O)C[C@@H]2C(=O)N[C@@H](CC(N)=O)C(=O)N[C@@H](C(C)C)C(=O)N(C)[C@@H](Cc2ccccc2)C(=O)N[C@@H](CCC(N)=O)C(=O)N2CCOC[C@@H]2C(=O)N[C@@H](Cc2c[nH]c3ccccc23)C(=O)N[C@@H](Cc2ccc(O)cc2)C(=O)N[C@@H](CCCN)C(=O)N[C@H](C(=O)NCC(N)=O)CSCC(=O)N[C@@H](Cc2cc(F)c(F)c(F)c2)C(=O)N(C)[C@@H](Cc2ccccc2)C(=O)N1C [Example 3605] ({CH2CO}-[Phe(3,4,5-F3)][NMeF][NMeNle][dHyp]NV[NMeF]Q[X4]WY[Orn]CG-NH2; thioether N-13)",
0.385 to 6.74 nM,0.158 to 4.71 nM,"CCCC[C@H]1C(=O)N2C[C@@H](O)C[C@@H]2C(=O)N[C@@H](CC(N)=O)C(=O)N[C@@H](C(C)C)C(=O)N(C)[C@@H](Cc2ccccc2)C(=O)N[C@@H](Cc2ccc(O)cc2)C(=O)N2CCOC[C@@H]2C(=O)N[C@@H](Cc2c[nH]c3ccccc23)C(=O)N[C@@H](Cc2ccc(O)cc2)C(=O)N[C@@H](CCCN)C(=O)N[C@H](C(=O)NCC(N)=O)CSCC(=O)N[C@@H](Cc2cc(F)c(F)c(F)c2)C(=O)N(C)[C@@H](Cc2ccccc2)C(=O)N1C [Example 3606] ({CH2CO}-[Phe(3,4,5-F3)][NMeF][NMeNle][dHyp]NV[NMeF]Y[X4]WY[Orn]CG-NH2; thioether N-13)",
0.385 to 6.74 nM,0.158 to 4.71 nM,"CCCC[C@H]1C(=O)N2C[C@@H](O)C[C@@H]2C(=O)N[C@@H](CC(N)=O)C(=O)N[C@@H](C(C)C)C(=O)N(C)[C@@H](Cc2ccccc2)C(=O)N[C@@H](CCCN)C(=O)N2CCOC[C@@H]2C(=O)N[C@@H](Cc2c[nH]c3ccccc23)C(=O)N[C@@H](Cc2ccc(O)cc2)C(=O)N[C@@H](CCCN)C(=O)N[C@H](C(=O)NCC(N)=O)CSCC(=O)N[C@@H](Cc2cc(F)c(F)c(F)c2)C(=O)N(C)[C@@H](Cc2ccccc2)C(=O)N1C [Example 3607] ({CH2CO}-[Phe(3,4,5-F3)][NMeF][NMeNle][dHyp]NV[NMeF][Orn][X4]WY[Orn]CG-NH2; thioether N-13)",
0.385 to 6.74 nM,0.158 to 4.71 nM,"CCCC[C@H]1C(=O)N2C[C@H](O)C[C@@H]2C(=O)N[C@@H](CC(N)=O)C(=O)N[C@@H](C(C)C)C(=O)N(C)[C@@H](Cc2ccccc2)C(=O)N[C@@H](CCC(=O)O)C(=O)N2CCOC[C@@H]2C(=O)N[C@@H](Cc2c[nH]c3ccccc23)C(=O)N[C@@H](Cc2ccc(O)cc2)C(=O)N[C@@H](CCCN)C(=O)N[C@H](C(=O)NCC(N)=O)CSCC(=O)N[C@@H](Cc2cc(F)c(F)c(F)c2)C(=O)N(C)[C@@H](Cc2ccccc2)C(=O)N1C [Example 3608] ({CH2CO}-[Phe(3,4,5-F3)][NMeF][NMeNle][d(cisHyp)]NV[NMeF]E[X4]WY[Orn]CG-NH2; thioether N-13)",
0.385 to 6.74 nM,0.158 to 4.71 nM,"CCCC[C@H]1C(=O)N(C)CC(=O)N[C@@H](CC(=O)O)C(=O)N[C@@H](C(C)C)C(=O)N(C)[C@@H](Cc2ccccc2)C(=O)N[C@@H](Cc2ccc(O)cc2)C(=O)N(C)CC(=O)N[C@@H](Cc2c[nH]c3ccccc23)C(=O)N[C@@H](Cc2ccc(O)c(O)c2)C(=O)N[C@@H](CC(C)C)C(=O)N[C@H](C(=O)NCC(N)=O)CSCC(=O)N[C@@H](Cc2cc(F)c(F)c(F)c2)C(=O)N(C)[C@@H](Cc2ccccc2)C(=O)N1C [Example 3609] ({CH2CO}-[Phe(3,4,5-F3)][NMeF][NMeNle][Sar]DV[NMeF]Y[Sar]W[Dopa]LCG-NH2; thioether N-13)",
